According to paper PMC10938783, “A novel pan-PI3K inhibitor KTC1101 synergizes with anti-PD-1 therapy by targeting tumor suppression and immune activation” (Molecular Cancer, 2024):

System: JFCR39 panel of 39 human tumor cell lines
Assay: JFCR39 panel growth inhibition, panel statistics
Assay type: cell-based
Conditions: Homo sapiens; JFCR39 panel; read-out: mean GI50 across all 39 cell lines
Experimental: JFCR39 drug discovery system was used to measure the growth inhibitory activities and identify the target of KTC1101. The JFCR39 panel consists of 39 cell lines seeded in 96-well plates. After 48-h treatment with KTC1101, cell growth was measured using the sulforhodamine B assay. […] The deviation of log GI50 for each cell line from the average log GI50 across the JFCR39 panel was plotted as a fingerprint. MG-MID (mean of Log GI50 values) represents the average log GI50 for all 39 cell lines. The most sensitive and least sensitive cell lines were identified by calculating the difference in their log GI50 values (Range) and the difference between the most sensitive cell line and the average GI50 on the JFCR39 panel (Delta). The fingerprint of KTC1101 was compared with the fingerprints of reference compounds in the database. The Pearson correlation coefficient (r) was calculated (n = 39).

- GI50: 0.134 µM
SMILES: COc1c(OCCCN2CCOCC2)ccc2c1N=C(NC(=O)c1cnc(N)nc1)N1CCN=C21 [Copanlisib, reference compound]
